≈ marks a conversion by molar mass, not a printed value. Read-outs that look alike come from different tables or passages of the source.

Format in all cases: cell-based
Data set [1] deals with B. thetaiotaomicron ATCC 29741. As to the kind of experiment: Antibacterial MIC, CLSI broth microdilution. The method, then:
(§1) Gram (−) and gram (+) antibacterial minimum inhibitory concentration (MIC) values (μg/mL) were obtained using CLSI methodology for anti-bacterial susceptibility testing. On each day of testing, serial dilutions of compounds were prepared in microdilution plates using a Tecan robotic workstation. Mueller Hinton broth cultures of representative sensitive and resistant gram negative strains were grown or adjusted to match the turbidity of a 0.5 McFarland standard. 1:200 dilutions were made in an appropriate broth (cation supplemented Mueller Hinton broth) to allow a final inoculum of 1×10^5 cfu. Plates were incubated at 35° C. in ambient air for 18-24 hours, were read spectrophotometrically and checked manually for evidence of bacterial growth. The lowest dilution of compound that inhibited growth was recorded as the MIC. Lysed horse blood was used to supplement broth for testing S. pneumoniae. The MIC's for each compound were assessed against S. aureus, S. pneumoniae, P. acnes, E. coli and B. theta.

In another data set the test system is E. coli ATCC 25922. As to the kind of experiment: Antibacterial MIC, CLSI broth microdilution. To be noted: Escherichia coli, ATCC25922; 35° C., 18-24 hours. The method, then:
as §1

The test system of another data set is E. coli MG. 1655. As to the kind of experiment: Antibacterial MIC, CLSI broth microdilution. The conditions noted are these: Escherichia coli, 35° C., 18-24 hours. The method, then:
as §1

In a further data set the test system is P. acnes ATCC 11827. As to the kind of experiment: Antibacterial MIC, CLSI broth microdilution. The conditions noted are these: Cutibacterium acnes, ATCC11827. As to the method: as §1
The next data set concerns P. acnes ATCC 6919. The experiment in a line: Antibacterial MIC, CLSI broth microdilution. The conditions noted are these: Cutibacterium acnes, ATCC6919. The method, then:
as §1

The test system of another data set is S. aureus RN450. The experiment in a line: Antibacterial MIC, CLSI broth microdilution. To be noted: Staphylococcus aureus, 35° C., 18-24 hours. The method, then: as §1
The subject of data set [2] is S. pneumoniae 157E - Strep. The experiment in a line: Antibacterial MIC, CLSI broth microdilution. To be noted: Streptococcus pneumoniae, 157ESTREP; broth supplemented with lysed horse blood. As to the method:
as §1

Another data set in a line: in vitro. As to the method:
Mammalian cell cytotoxicity was assessed to evaluate potential in vivo risks associated with the tetracycline compounds of the invention. A soluble, non-toxic redox dye (“Resazurin”; Alamar Blue) was used to assess a tetracycline compound's effect on cellular metabolism. At the onset of the experiment, cultures of mammalian COS-1 or CHO cells were washed, trypsinized, and harvested. […] On the next day, serial dilutions of test drug were prepared under sterile conditions and transferred to cell plates. Plates were then incubated under the above conditions for 24 hours. Following the incubation period, the media/drug was aspirated, and 50 μL of resazurin was added. Plates were then incubated under the above conditions for 2 hours and then in the dark at room temperature for an additional 30 minutes. Fluorescence measurements were taken (excitation 535 nm, emission 590 nm) and toxic effects in treated versus control cells were compared based on the degree of fluorescence in each well.

[3] abbreviates: Bacteroides thetaiotaomicron, ATCC29741; read-out: MIC B. thetaiotaomicron ATCC 29741.
Setting [4] is: Bacteroides thetaiotaomicron, ATCC29741, read-out: MIC B. thetaiotaomicron ATCC 29741.

For `CCON=C(CCN(C)C)c1ccc(O)c2c1C[C@H]1C[C@H]3[C@@H](N(C)C)C(O)=C(C(N)=O)C(=O)[C@@]3(O)C(O)=C1C2=O` [Compound I, (4R,4aS,5aR,12aS)-4-Dimethylamino-7-(3-dimethylamino-1-ethoxyimino-propyl)-3,10,12,12a-tetrahydroxy-1,11-dioxo-1,4,4a,5,5a,6,11,12a-octahydro-naphthacene-2-carboxylic acid amide], the MIC was 4 to 8 µg/mL (≈ 7.19 to 14.4 µM) in data set [1] (setting [3]); under 4 µg/mL in the data set on E. coli ATCC 25922; under 4 µg/mL in the data set on E. coli MG. 1655; under 4 µg/mL in the data set with P. acnes ATCC 11827; under 4 µg/mL against P. acnes ATCC 6919; under 4 µg/mL with S. aureus RN450. Besides, the MIC in data set [2] was under 4 µg/mL. In addition, the IC50 at 24 h in “in vitro” (African green monkey) and in the data set “in vitro” (Chinese hamster) was over 75 µg/mL in each case.

For the compound `COC(=O)CONCc1ccc(O)c2c1C[C@H]1C[C@H]3[C@H](N(C)C)C(O)=C(C(N)=O)C(=O)[C@@]3(O)C(O)=C1C2=O` [AX], the IC50 at 24 h in “in vitro” (African green monkey) and in “in vitro” (Chinese hamster) was under 35 µg/mL throughout.

Consider `CON(C)Cc1ccc(O)c2c1C[C@H]1C[C@H]3[C@@H](N(C)C)C(O)=C(C(N)=O)C(=O)[C@@]3(O)C(O)=C1C2=O` [Y], for which, in data set [1] (setting [4]), the MIC was over 8 µg/mL.

Take `CN(C)[C@@H]1C(O)=C(C(N)=O)C(=O)[C@@]2(O)C(O)=C3C(=O)c4c(O)ccc(CN5CCCCO5)c4C[C@H]3C[C@@H]12` [AV]: the IC50 at 24 h in the data set “in vitro” (African green monkey) and in the data set “in vitro” (Chinese hamster) was 35 to 75 µg/mL (≈ 68.2 to 146 µM) in each case.

Turning to `CCONCc1ccc2c(c1O)C(=O)C1=C(O)[C@]3(O)C(=O)C(C(N)=O)=C(O)[C@@H](N(C)C)[C@@H]3C[C@@H]1C2` [AQ], the IC50 at 24 h in “in vitro” (African green monkey) and in “in vitro” (Chinese hamster) was under 35 µg/mL each time.

For `CN(C)[C@H]1C(O)=C(C(N)=O)C(=O)[C@@]2(O)C(O)=C3C(=O)c4c(O)ccc(CNOCC(F)(F)F)c4C[C@H]3C[C@@H]12` [AU], the IC50 at 24 h in “in vitro” (African green monkey) and in the data set “in vitro” (Chinese hamster) was over 75 µg/mL in each case.

On to `CON(C)Cc1ccc2c(c1O)C(=O)C1=C(O)[C@]3(O)C(=O)C(C(N)=O)=C(O)[C@@H](N(C)C)[C@@H]3C[C@@H]1C2` [Compound AP], for which, in data set [1] (setting [3]), the MIC fell in the range of 4 to 8 µg/mL (≈ 8.2 to 16.4 µM). For the same compound, the IC50 at 24 h in “in vitro” (African green monkey) and in “in vitro” (Chinese hamster) was 35 to 75 µg/mL (≈ 71.8 to 154 µM) throughout.

As to `CC(=NOCC(F)(F)F)c1cc(N)c(O)c2c1C[C@H]1C[C@H]3[C@H](N(C)C)C(O)=C(C(N)=O)C(=O)[C@@]3(O)C(O)=C1C2=O` [Compound AW, (4S,4aS,5aR,12aS)-9-Amino-4-dimethylamino-3,10,12,12a-tetrahydroxy-1,1,1-dioxo-7-[1-(2,2,2-trifluoro-ethoxyimino)-ethyl]-1,4,4a,5,5a,6,11,12a-octahydro-naphthacene-2-carboxylic acid amide], the minimal inhibitory concentration (MIC) in data set [1] (setting [3]) was 4 to 8 µg/mL (≈ 7.04 to 14.1 µM); against E. coli ATCC 25922, 4 to 8 µg/mL (≈ 7.04 to 14.1 µM); in the data set on E. coli MG. 1655, 4 to 8 µg/mL (≈ 7.04 to 14.1 µM); in the data set on P. acnes ATCC 11827 it was under 4 µg/mL; in the data set on P. acnes ATCC 6919, under 4 µg/mL; against S. aureus RN450 it was under 4 µg/mL. The compound also registered a minimal inhibitory concentration (MIC) in data set [2] of under 4 µg/mL.

In the case of `CC(=NOC(C)(C)C)c1cc(N)c(O)c2c1C[C@H]1C[C@H]3[C@@H](N(C)C)C(O)=C(C(N)=O)C(=O)[C@@]3(O)C(O)=C1C2=O` [R], the MIC is 4 to 8 µg/mL (≈ 7.37 to 14.7 µM) in data set [1] (setting [3]); over 8 µg/mL in the data set with E. coli ATCC 25922; over 8 µg/mL against E. coli MG. 1655; under 4 µg/mL against P. acnes ATCC 11827; under 4 µg/mL in the data set with P. acnes ATCC 6919; under 4 µg/mL in the data set with S. aureus RN450. For the same compound, the MIC in data set [2] was under 4 µg/mL. Also, the IC50 at 24 h in the data set “in vitro” (African green monkey) and in the data set “in vitro” (Chinese hamster) was under 35 µg/mL each time.

In the case of `CCON=C(C)c1cc(CNCC(C)(C)C)c(O)c2c1C[C@H]1C[C@H]3[C@H](N(C)C)C(O)=C(C(N)=O)C(=O)[C@@]3(O)C(O)=C1C2=O` [Compound N, (4S,4aS,5aR,12aS)-4-Dimethylamino-9-[(2,2-dimethyl-propylamino)-methyl]-7-(1-ethoxyimino-ethyl)-3,10,12,12a-tetrahydroxy-1,11-dioxo-1,4,4a,5,5a,6,11,12a-octahydro-naphthacene-2-carboxylic acid amide], the MIC in data set [1] (setting [3]) is under 4 µg/mL; against E. coli ATCC 25922, under 4 µg/mL; in the data set with E. coli MG. 1655, 4 to 8 µg/mL (≈ 6.68 to 13.4 µM); in the data set on P. acnes ATCC 11827, under 4 µg/mL; in the data set with P. acnes ATCC 6919, under 4 µg/mL; against S. aureus RN450 it was under 4 µg/mL. In addition, the MIC in data set [2] was under 4 µg/mL. For the same compound, the IC50 at 24 h in the data set “in vitro” (African green monkey) and in the data set “in vitro” (Chinese hamster) was over 75 µg/mL in each case.

Take `CN(C)[C@@H]1C(O)=C(C(N)=O)C(=O)[C@@]2(O)C(O)=C3C(=O)c4c(O)ccc(CNOCC(F)(F)F)c4C[C@H]3C[C@@H]12` [AT]: the IC50 at 24 h in “in vitro” (African green monkey) and in the data set “in vitro” (Chinese hamster) was under 35 µg/mL in each case.

As for `CC(C)ONCc1ccc(O)c2c1C[C@H]1C[C@H]3[C@H](N(C)C)C(O)=C(C(N)=O)C(=O)[C@@]3(O)C(O)=C1C2=O` [Compound AN, (4S,4aS,5aR,12aS)-4-Dimethylamino-3,10,12,12a-tetrahydroxy-7-(isopropoxyamino-methyl)-1,11-dioxo-1,4,4a,5,5a,6,11,12a-octahydro-naphthacene-2-carboxylic acid amide], the IC50 at 24 h in “in vitro” (African green monkey) and in “in vitro” (Chinese hamster) was under 35 µg/mL each time.

Take `CN(C)[C@@H]1C(O)=C(C(N)=O)C(=O)[C@@]2(O)C(O)=C3C(=O)c4c(O)ccc(CNOCCF)c4C[C@H]3C[C@@H]12` [Compound AO, (4S,4aS,5aR,12aS)-4-Dimethylamino-7-[(2-fluoro-ethoxyamino)-methyl]-3,10,12,12a-tetrahydroy-1,11-dioxo-1,4,4a,5,5a,6,11,12a-octahydro-naphthacene-2-carboxylic acid amide]: the IC50 at 24 h in the data set “in vitro” (African green monkey) and in the data set “in vitro” (Chinese hamster) was over 75 µg/mL each time.

In the case of `CON(C)Cc1ccc(O)c2c1C[C@H]1C[C@H]3[C@H](N(C)C)C(O)=C(C(N)=O)C(=O)[C@@]3(O)C(O)=C1C2=O` [Compound P], in data set [1] (setting [4]), the MIC was in the range of 4 to 8 µg/mL (≈ 8.2 to 16.4 µM).

Regarding `CN(C)[C@@H]1C(O)=C(C(N)=O)C(=O)[C@@]2(O)C(O)=C3C(=O)c4c(O)ccc(CNOCC(F)F)c4C[C@H]3C[C@@H]12` [AR], the IC50 at 24 h was under 35 µg/mL in the data set “in vitro” (African green monkey) and 35 to 75 µg/mL (≈ 66.9 to 143 µM) in the data set “in vitro” (Chinese hamster).

Take `CN(C)[C@H]1C(O)=C(C(N)=O)C(=O)[C@@]2(O)C(O)=C3C(=O)c4c(O)ccc(CNOCC(F)F)c4C[C@H]3C[C@@H]12` [AS]: the IC50 at 24 h in the data set “in vitro” (African green monkey) and in “in vitro” (Chinese hamster) was over 75 µg/mL each time.

For `CN(C)CCC(=NOC(C)(C)C)c1ccc(O)c2c1C[C@H]1C[C@H]3[C@H](N(C)C)C(O)=C(C(N)=O)C(=O)[C@@]3(O)C(O)=C1C2=O` [O], the MIC (in data set [1] (setting [3]); against E. coli ATCC 25922; against E. coli MG. 1655; with P. acnes ATCC 11827; in the data set with P. acnes ATCC 6919; against S. aureus RN450) was under 4 µg/mL in each case. Also, the minimum inhibitory concentration (MIC) in data set [2] is under 4 µg/mL. Also, the IC50 at 24 h was 35 to 75 µg/mL (≈ 59.9 to 128 µM) in the data set “in vitro” (African green monkey) and under 35 µg/mL in “in vitro” (Chinese hamster).

On to `CCON=C(C)c1cc(N)c(O)c2c1C[C@H]1C[C@H]3[C@H](N(C)C)C(O)=C(C(N)=O)C(=O)[C@@]3(O)C(O)=C1C2=O` [M], for which the MIC in data set [1] (setting [3]) is 4 to 8 µg/mL (≈ 7.77 to 15.5 µM); in the data set on E. coli ATCC 25922, under 4 µg/mL; with E. coli MG. 1655, 4 to 8 µg/mL (≈ 7.77 to 15.5 µM); against P. acnes ATCC 11827, under 4 µg/mL; against P. acnes ATCC 6919 it was under 4 µg/mL; against S. aureus RN450 it was under 4 µg/mL. For the same compound, the MIC in data set [2] was under 4 µg/mL. The IC50 at 24 h in “in vitro” (African green monkey) and in “in vitro” (Chinese hamster) was over 75 µg/mL throughout.

These data come from US9481639B2, “Substituted tetracycline compounds for treatment of inflammatory skin disorders” (Paratek Pharmaceuticals, Inc., priority 2006, dated 2016).
